{"source": "paper PMC7156458", "about": "“Synthetic biology based construction of biological activity-related library of fungal decalin-containing diterpenoid pyrones” (Nature Communications, 2020)", "format_in_all_cases": "cell-based", "key": {"[1]": {"test_system": "human immunodeficiency virus-1 (HIV-1)", "assay": "anti-HIV MAGI assay", "conditions": "Human immunodeficiency virus 1, MAGI, anti-HIV; average of numeric determinations; read-out: Avg. EC50", "excerpt": "We examined the inhibitory activities of DDPs against various species of bacteria (both gram-negative and gram-positive bacteria), fungi and viruses. […] In contrast, preliminary screening of the DDPs for anti-viral agents with hepatitis B virus (HBV), measles virus (MV), Epstein-Barr virus (EBV), herpes simplex virus (HSV) and human immunodeficiency virus-1 (HIV-1) indicated their selective inhibition of HIV."}, "[2]": {"test_system": "DL1 cells", "assay": "cytotoxicity in Drosophila DL1 cells", "conditions": "DL1 cells; for % viability, viability 1: replicate 1, relative to DMSO 1%; for % viability, viability 2: replicate 2, relative to DMSO 1%; for IC50: cytotoxicity", "method": "(§1) We screened the DDPs on the Drosophila assay system for cytotoxicity, inhibitory activity of innate immune signalling and insecticidal activity. The cytotoxicity of the DDPs was evaluated using two cell lines, embryonic macrophage-derived DL1 cells[58]–[60] and larval blood cell-derived l(2)mbn cells, and their IC50 values are listed in Supplementary Table 23."}, "[3]": {"test_system": "l(2)mbn cells", "assay": "cytotoxicity in Drosophila l(2)mbn cells", "conditions": "for Luminescence Raw1: replicate 1; for % viability, viability 1: replicate 1, relative to DMSO 1%; for Luminescence Raw2: replicate 2; for % viability, viability 2: replicate 2, relative to DMSO 1%; for IC50: cytotoxicity", "method": "as §1"}, "[4]": {"conditions": "average of two replicates, read-out: IC50 Average"}, "[5]": {"conditions": "replicate 1, read-out: IC50 (1)"}, "[6]": {"conditions": "replicate 2, read-out: IC50 (2)"}}, "note": "Read-outs that look alike come from different tables or passages of the source."}
{"compound": "C=C1CCC2C(C)(CCC=C(C)C)C(O)CCC2(C)C1Cc1c(O)c(C)c(C)oc1=O", "note": "(stereo not drawn) [Compound 4]", "values": [{"measurement": "EC50", "setting": "[1]", "result": 592, "unit": "nM"}, {"measurement": "Luminescence Raw1", "setting": "[2]; 0.04 µM, replicate 1", "result": 2757856}, {"measurement": "% viability, viability 1", "setting": "[2]; 0.04 µM", "result": 201.087, "unit": "%"}, {"measurement": "Luminescence Raw2", "setting": "[2]; 0.04 µM, replicate 2", "result": 3026942}, {"measurement": "% viability, viability 2", "setting": "[2]; 0.04 µM", "result": 220.707, "unit": "%"}, {"measurement": "Luminescence Raw1", "setting": "[2]; 0.2 µM, replicate 1", "result": 2720705}, {"measurement": "% viability, viability 1", "setting": "[2]; 0.2 µM", "result": 198.378, "unit": "%"}, {"measurement": "Luminescence Raw2", "setting": "[2]; 0.2 µM, replicate 2", "result": 3168342}, {"measurement": "% viability, viability 2", "setting": "[2]; 0.2 µM", "result": 231.017, "unit": "%"}, {"measurement": "Luminescence Raw1", "setting": "[2]; 1 µM, replicate 1", "result": 2448745}, {"measurement": "% viability, viability 1", "setting": "[2]; 1 µM", "result": 178.548, "unit": "%"}, {"measurement": "Luminescence Raw2", "setting": "[2]; 1 µM, replicate 2", "result": 2704113}, {"measurement": "% viability, viability 2", "setting": "[2]; 1 µM", "result": 197.168, "unit": "%"}, {"measurement": "Luminescence Raw1", "setting": "[2]; 4 µM, replicate 1", "result": 345570}, {"measurement": "% viability, viability 1", "setting": "[2]; 4 µM", "result": 25.197, "unit": "%"}, {"measurement": "Luminescence Raw2", "setting": "[2]; 4 µM, replicate 2", "result": 345209}, {"measurement": "% viability, viability 2", "setting": "[2]; 4 µM", "result": 25.1707, "unit": "%"}, {"measurement": "Luminescence Raw1", "setting": "[2]; 10 µM, replicate 1", "result": 299777}, {"measurement": "% viability, viability 1", "setting": "[2]; 10 µM", "result": 21.858, "unit": "%"}, {"measurement": "Luminescence Raw2", "setting": "[2]; 10 µM, replicate 2", "result": 341603}, {"measurement": "% viability, viability 2", "setting": "[2]; 10 µM", "result": 24.9077, "unit": "%"}, {"measurement": "Luminescence Raw1", "setting": "[2]; 20 µM, replicate 1", "result": 287878}, {"measurement": "% viability, viability 1", "setting": "[2]; 20 µM", "result": 20.9904, "unit": "%"}, {"measurement": "Luminescence Raw2", "setting": "[2]; 20 µM, replicate 2", "result": 302301}, {"measurement": "% viability, viability 2", "setting": "[2]; 20 µM", "result": 22.0421, "unit": "%"}, {"measurement": "IC50", "setting": "[2]; [4]", "result": 1540, "unit": "nM"}, {"measurement": "IC50", "setting": "[2]; average±SEM, read-out: IC50", "result": "1540 ± 80", "unit": "nM"}, {"measurement": "IC50", "setting": "[2]; [5]", "result": 1610, "unit": "nM"}, {"measurement": "IC50", "setting": "[2]; [6]", "result": 1460, "unit": "nM"}, {"measurement": "Luminescence Raw1", "setting": "[3]; 0.04 µM", "result": 5839335}, {"measurement": "% viability, viability 1", "setting": "[3]; 0.04 µM", "result": 92.9944, "unit": "%"}, {"measurement": "Luminescence Raw2", "setting": "[3]; 0.04 µM", "result": 5201728}, {"measurement": "% viability, viability 2", "setting": "[3]; 0.04 µM", "result": 82.8402, "unit": "%"}, {"measurement": "Luminescence Raw1", "setting": "[3]; 0.2 µM", "result": 5720253}, {"measurement": "% viability, viability 1", "setting": "[3]; 0.2 µM", "result": 91.0979, "unit": "%"}, {"measurement": "Luminescence Raw2", "setting": "[3]; 0.2 µM", "result": 5444207}, {"measurement": "% viability, viability 2", "setting": "[3]; 0.2 µM", "result": 86.7018, "unit": "%"}, {"measurement": "Luminescence Raw1", "setting": "[3]; 1 µM", "result": 5427969}, {"measurement": "% viability, viability 1", "setting": "[3]; 1 µM", "result": 86.4432, "unit": "%"}, {"measurement": "Luminescence Raw2", "setting": "[3]; 1 µM", "result": 5886607}, {"measurement": "% viability, viability 2", "setting": "[3]; 1 µM", "result": 93.7472, "unit": "%"}, {"measurement": "Luminescence Raw1", "setting": "[3]; 4 µM", "result": 5612720}, {"measurement": "% viability, viability 1", "setting": "[3]; 4 µM", "result": 89.3854, "unit": "%"}, {"measurement": "Luminescence Raw2", "setting": "[3]; 4 µM", "result": 6637959}, {"measurement": "% viability, viability 2", "setting": "[3]; 4 µM", "result": 105.713, "unit": "%"}, {"measurement": "Luminescence Raw1", "setting": "[3]; 10 µM", "result": 900951}, {"measurement": "% viability, viability 1", "setting": "[3]; 10 µM", "result": 14.3481, "unit": "%"}, {"measurement": "Luminescence Raw2", "setting": "[3]; 10 µM", "result": 1318179}, {"measurement": "% viability, viability 2", "setting": "[3]; 10 µM", "result": 20.9927, "unit": "%"}, {"measurement": "Luminescence Raw1", "setting": "[3]; 20 µM", "result": 296971}, {"measurement": "% viability, viability 1", "setting": "[3]; 20 µM", "result": 4.729, "unit": "%"}, {"measurement": "Luminescence Raw2", "setting": "[3]; 20 µM", "result": 325456}, {"measurement": "% viability, viability 2", "setting": "[3]; 20 µM", "result": 5.183, "unit": "%"}, {"measurement": "IC50", "setting": "[3]; [4]", "result": 6.44, "unit": "µM"}, {"measurement": "IC50", "setting": "[3]; average±SEM, read-out: IC50", "result": "6.44 ± 0.94", "unit": "µM"}, {"measurement": "IC50", "setting": "[3]; [5]", "result": 5.5, "unit": "µM"}, {"measurement": "IC50", "setting": "[3]; [6]", "result": 7.39, "unit": "µM"}]}
